# From patent publication US7132258B1, “Nucleic acid encoding vitamin D receptor related polypeptide” (University of Massachusetts, priority 1998, dated 2006)
# Legend:
# [1] = target: T1, Gal4 DBD fusion of the LBD of hRARα (Homo sapiens, UniProt P10276); assay: Coactivation of Gal-RAR on Gal4-tk-Luc reporter in A549 cells; type: cell-based; conditions: overexpression of RAC3, 100 nM atRA, 24 hours
# T1 construct: Gal4 DBD fusion of the LBD of hRARα (Gal-RAR); expressed in transfected cells; host or cells: A549 human lung carcinoma cells
# T1 sequence (P10276 183-417 limits assumed): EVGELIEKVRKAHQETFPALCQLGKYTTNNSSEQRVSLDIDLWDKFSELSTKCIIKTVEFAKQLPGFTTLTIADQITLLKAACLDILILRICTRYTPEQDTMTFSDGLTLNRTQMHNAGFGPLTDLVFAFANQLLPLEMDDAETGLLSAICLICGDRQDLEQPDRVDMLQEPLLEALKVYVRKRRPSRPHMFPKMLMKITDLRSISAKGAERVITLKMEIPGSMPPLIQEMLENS
# T1 sequence (Q9Y6Q9 with tags, fused parts or gaps isoform Q9Y6Q9-5 D131E/G132A/T187P/E704Q/DEL1268-1272 partner): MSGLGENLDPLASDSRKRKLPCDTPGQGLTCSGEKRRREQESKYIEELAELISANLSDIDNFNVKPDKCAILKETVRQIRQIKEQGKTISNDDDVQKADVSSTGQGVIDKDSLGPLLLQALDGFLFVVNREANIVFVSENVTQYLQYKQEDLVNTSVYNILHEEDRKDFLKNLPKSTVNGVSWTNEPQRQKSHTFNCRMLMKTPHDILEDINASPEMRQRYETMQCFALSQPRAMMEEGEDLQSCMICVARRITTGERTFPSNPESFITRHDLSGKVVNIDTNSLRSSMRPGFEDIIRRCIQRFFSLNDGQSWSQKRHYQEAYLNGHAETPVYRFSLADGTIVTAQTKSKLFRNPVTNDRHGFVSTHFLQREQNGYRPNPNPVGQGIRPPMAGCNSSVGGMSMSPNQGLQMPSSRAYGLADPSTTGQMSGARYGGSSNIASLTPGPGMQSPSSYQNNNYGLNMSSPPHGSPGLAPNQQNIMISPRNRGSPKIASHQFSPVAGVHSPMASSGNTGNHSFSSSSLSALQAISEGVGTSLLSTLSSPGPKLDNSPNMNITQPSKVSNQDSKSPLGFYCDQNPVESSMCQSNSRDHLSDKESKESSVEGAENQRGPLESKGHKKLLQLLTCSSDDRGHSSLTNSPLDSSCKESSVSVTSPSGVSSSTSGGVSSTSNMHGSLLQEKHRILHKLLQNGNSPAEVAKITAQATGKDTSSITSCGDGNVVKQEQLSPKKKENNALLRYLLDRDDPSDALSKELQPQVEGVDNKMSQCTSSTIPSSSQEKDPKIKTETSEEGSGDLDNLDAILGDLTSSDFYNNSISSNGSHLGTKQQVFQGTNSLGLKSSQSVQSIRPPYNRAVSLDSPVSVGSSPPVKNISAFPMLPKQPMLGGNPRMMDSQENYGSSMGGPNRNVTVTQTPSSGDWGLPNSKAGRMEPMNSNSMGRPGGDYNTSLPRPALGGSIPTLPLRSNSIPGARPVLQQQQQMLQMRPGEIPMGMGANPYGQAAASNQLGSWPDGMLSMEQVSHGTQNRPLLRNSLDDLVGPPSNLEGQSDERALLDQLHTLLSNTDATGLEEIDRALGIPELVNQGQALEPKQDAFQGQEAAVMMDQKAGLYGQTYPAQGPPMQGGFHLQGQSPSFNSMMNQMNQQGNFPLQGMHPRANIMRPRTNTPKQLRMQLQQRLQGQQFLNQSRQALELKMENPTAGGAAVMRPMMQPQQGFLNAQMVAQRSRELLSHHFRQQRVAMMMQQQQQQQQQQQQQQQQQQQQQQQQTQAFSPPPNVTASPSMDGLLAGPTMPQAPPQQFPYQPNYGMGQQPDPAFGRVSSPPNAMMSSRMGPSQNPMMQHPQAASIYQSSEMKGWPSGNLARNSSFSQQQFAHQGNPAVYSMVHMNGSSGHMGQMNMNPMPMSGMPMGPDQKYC
# Procedure: Monkey kidney-derived CV-1 cells and human lung carcinoma A549 cells were grown in phenol-free DMEM medium supplemented with 10% charcoal-stripped fetal bovine serum (Gibco). One day before transfection, cells were seeded in 12-well plates at a density of 50,000 cells per well. A mixture of DNAs was prepared that contained 0.5 μg of expression vector, 0.5 μg of pCMX-βGal used as internal control for transfection efficiency, 1 μg of luciferase reporter, and 1.5 μg of carrier DNA (PGEM) in a final volume of 30 μl. The DNA solution was mixed dropwise with one volume of 0.5 M CaCl2 and two volumes of 2×BBS (50 mM N,N-bis(2-hydroxyethyl)-2-aminoethanesulfonic acid (BES; Calbiochem), 280 mM NaCl, 1.5 mM Na2HPO4, pH 6.95). DNA precipitates were allowed to form at room temperature for 10 minutes and applied evenly to the cell cultures. Cells were allowed to transfect for 12 hours, then the precipitates were removed by washing transfected cells twice with phosphate buffered saline (PBS). […]
# Luciferase and β-galactosidase assays were used to analyze the cultures. […] The luciferase activities were determined with MLX microtiter plate luminometer (Dynex) using 100 μl of assay solution (0.1 M KPO4, 5 mM ATP, 10 mM MgCl2) and 100 μl of luciferin solution (0.01 M D-luciferin in 0.1 M KPO4, pH 7.8). […]
# [2] = tested on: CBP; assay: Far-Western analysis of interaction with GST-CBP fusions; type: binding; conditions: 35S-labeled full-length RAC3
# Procedure: GST fusion proteins were overexpressed and purified from DH5α cells on glutathione agarose beads. The fusion proteins were separated on denaturing protein gels (SDS-PAGE) and electroblotted onto nitrocellulose filters in a transfer buffer (25 mM Tris-HCl, pH 8.3; 192 mM glycine; 0.01% SDS). After denaturation in 6 M guanidine hydrochloride (GnHCl), the proteins were renatured by stepwise dilution of GnHCl to 0.187 M in HB buffer (25 mM Hepes, pH 7.7; 25 mM NaCl; 5 mM MgC12; 1 mM DTT). The filters were then saturated with blocking buffer (5% non-fat milk, then 1% milk in HB buffer plus 0.05% NP40) at 4° C. overnight. In vitro translated 35S-labeled proteins were generated in reticulocyte lysate (Promega) and were diluted into a hybridization buffer (20 mM Hepes, pH 7.7; 75 mM KCl; 0.1 mM EDTA; 2.5 mM MgC12; 0.05% NP40; 1% milk; 1 mM DTT). […] The bound 35S-labeled proteins were detected by autoradiography.
# Since SRC-1 can interact with the general transcriptional coactivator CBP and p300 (Yao, T. P., et al. (1996) Proc Natl Acad Sci USA 93, 10626–31.), it was determined whether RAC3 can also interact with CBP by far-Western analyses. Serial GST-CBP fusions covering the SRC-1 interacting domain were analyzed for interactions with ^35S-labeled full-length RAC3, SRC-1 and RAC3-AD (FIGS. 3A, B and C). […]
# [3] = tested on: histone; assay: Histone acetyltransferase (HAT) activity; type: biochemical; conditions: compared with the p/CAF; unpublished data
substance,measurement,setting,value
"RAC3: transcriptional coactivator of steroid/nuclear receptors, protein of about 1417 amino acids (SEQ ID NO:2); RAC3.1 is the two-hybrid clone, amino acids 401–1204",enhancement of ligand-dependent transcriptional activation by Gal4 DBD fusion of RAR,[1],about two-fold
same,interaction with CBP fragments C and D,[2],interacts strongly
same,HAT activity,[3],very weakly
